Target: T1, human V2 vasopressin receptor (Homo sapiens, UniProt P30518)
T1 construct: expressed in transfected cells; host or cells: mouse fibroblast cell line LV-2
Test: Binding to Membranes of Mouse Fibroblast Cell Line (LV-2) Transfected with the cDNA Expressing the Human V2 Vasopressin Receptor
Experimental: Binding to Membranes of Mouse Fibroblast Cell Line (LV-2) Transfected with the cDNA Expressing the Human V2 Vasopressin Receptor
Flasks of 175 ml capacity, continuing attached cells grown to confluence, are cleared of culture medium by aspiration. The flasks containing the attached cells are rinsed with 2×5 ml of phosphate buffered saline (PBS) and the liquid aspirated off each time. […] The protein content is determined by the Lowry method and the receptor membranes are suspended in 50.0 mM Tris.HCl buffer containing 0.1 mM phenylmethylsulfonylfluoride (PMSF) and 0.2% bovine serum albumin (BSA) to give 2.5 mg receptor protein per ml of suspension.
For binding experiments, the following is added in ml volume to wells of a 96 well format of a microtiter plate: 100.0 ml of 100.0 mM Tris.HCl buffer containing 0.2% heat inactivated BSA, 10.0 mM MgCl2 and a mixture of protease inhibitors: leupeptin, 1.0 mg %; aprotinin, 1.0 mg %; 1,10-phenanthroline, 2.0 mg %; trypsin inhibitor, 10.0 mg % and 0.1 mM PMSF., 20.0 ml of [^3 H] […] Non specific binding is assessed in the presence of 1.0 mM of unlabeled ligand, added in 20 ml volume. […] The radioactivity trapped on the filter disk by the ligand-receptor complex is assessed by liquid scintillation counting in a Packard LS Counter, with an efficiency of 65% for tritium.

T1 sequence (P30518 whole entry): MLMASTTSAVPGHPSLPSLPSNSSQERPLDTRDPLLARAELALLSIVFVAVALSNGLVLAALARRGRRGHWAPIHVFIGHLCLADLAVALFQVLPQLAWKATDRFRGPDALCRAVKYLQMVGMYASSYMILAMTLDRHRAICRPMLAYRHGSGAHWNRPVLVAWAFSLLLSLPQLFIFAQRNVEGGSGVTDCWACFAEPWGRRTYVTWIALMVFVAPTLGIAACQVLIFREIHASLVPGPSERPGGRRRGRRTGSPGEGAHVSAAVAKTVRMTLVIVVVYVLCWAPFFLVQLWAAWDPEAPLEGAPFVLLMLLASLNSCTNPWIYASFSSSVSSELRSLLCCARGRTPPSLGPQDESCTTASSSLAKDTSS

inhibition at 10 µM (** human V2, LV-2 membranes, 10 μM)	IC50 (** human V2 receptor, LV-2 membranes)	Structure (SMILES)
26%	–	CCCCOc1ccc(C(=O)N2Cc3ccccc3Cc3ccccc32)cc1 [Example 24]
–	1.8 µM	O=C(c1ccc(-c2ccccc2)cc1)N1Cc2sccc2Cc2ccccc21 [Example 27, 9-([1,1'-Biphenyl]-4-ylcarbonyl)-9,10-dihydro-4H-thieno[2,3-c][1]benzazepine]

Source: patent US5849735A, “Tricyclic benzazepine vasopressin antagonists” (American Cyanamid Company, priority 1995, dated 1998)
